Assay results reported in the supplement of paper PMC10307832.

compound: CC1(COc2ccc3c(c2)ncn3-c2ccc3cccc(N4CCC(N)CC4)c3n2)COC1 [Crenolanib] + O=C(c1cc(Cc2n[nH]c(=O)c3ccccc23)ccc1F)N1CCN(C(=O)C2CC2)CC1 [Olaparib] (partner 8 µM); test: relative viability (nuclei count vs DMSO), 5 days (fraction); higher = more cells survive; conditions: first compound 0.01 µM
Procedure, shortened: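 Relative viability equals treated-well nuclei counts divided by vehicle-well nuclei counts. Counts came from 4× images of lung cancer cell lines grown in 1536-well plates for 5 days after pin-tool dosing on the day after seeding. Dosing used one drug alone or a fixed anchor-drug dose plus five library-drug doses (not always all listed) in √10 steps, and values are medians of duplicate plates.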

Row | Cell Line | relative viability
1 | NCI-H522 | 0.581
2 | NCI-H838 | 0.828
3 | NCI-H1651 | 0.177
4 | EBC-1 | 0.768
5 | NCI-H1734 | 0.617
6 | NCI-H2009 | 0.694
7 | EPLC-272H | 0.854
8 | PC-14 | 0.255
9 | LCLC-97TM1 | 0.395
10 | NCI-H596 | 0.731
11 | NCI-H2228 | 0.76
12 | EMC-BAC-2 | 0.559
13 | NCI-H2087 | 0.602
14 | Calu-6 | 0.596
15 | HCC-44 | 0.983
16 | NCI-H1703 | 0.376
17 | NCI-H647 | 0.477
18 | LK-2 | 0.837
19 | NCI-H2126 | 0.928
20 | NCI-H2342 | 0.445
21 | SK-MES-1 | 0.759
22 | HARA | 0.846

Row | Cell Line | relative viability
23 | COR-L23 | 0.321
24 | COR-L 105 | 0.729
25 | LC-2-ad | 0.65
26 | LU99A | 0.274
27 | ChaGo-K-1 | 0.398
28 | NCI-H2170 | 0.608
29 | NCI-H3122 | 0.678
30 | IA-LM | 0.847
31 | HCC-78 | 0.998
32 | A549 | 0.474
33 | SW 900 | 0.925
34 | LXF-289 | 1.08
35 | BEN | 1.15
36 | NCI-H1648 | 1.08
37 | NCI-H2023 | 0.53
38 | NCI-H520 | 0.367
39 | SW 1573 | 0.589
40 | NCI-H1299 | 0.965
41 | CAL-12T | 0.746
42 | NCI-H1650 | 0.677
43 | SK-LU-1 | 0.547
44 | NCI-H661 | 0.719

same assay, conditions: first compound 0.03162 µM

Row | Cell Line | relative viability
45 | NCI-H522 | 0.676
46 | NCI-H838 | 0.776
47 | NCI-H1651 | 0.186
48 | EBC-1 | 0.727
49 | NCI-H1734 | 0.676
50 | NCI-H2009 | 0.672
51 | EPLC-272H | 0.868
52 | PC-14 | 0.257
53 | LCLC-97TM1 | 0.53
54 | NCI-H596 | 0.806
55 | NCI-H2228 | 0.833
56 | NCI-H2087 | 0.643
57 | Calu-6 | 0.494
58 | HCC-44 | 0.941
59 | NCI-H1703 | 0.383
60 | NCI-H647 | 0.512
61 | LK-2 | 0.572
62 | NCI-H2126 | 0.91
63 | NCI-H2342 | 0.484
64 | SK-MES-1 | 0.705
65 | HARA | 0.949

Row | Cell Line | relative viability
66 | COR-L23 | 0.342
67 | COR-L 105 | 0.641
68 | LC-2-ad | 0.704
69 | LU99A | 0.283
70 | ChaGo-K-1 | 0.406
71 | NCI-H2170 | 0.674
72 | NCI-H3122 | 0.622
73 | IA-LM | 0.907
74 | HCC-78 | 0.86
75 | A549 | 0.317
76 | LXF-289 | 0.954
77 | BEN | 0.96
78 | NCI-H2023 | 0.467
79 | NCI-H520 | 0.258
80 | SW 1573 | 0.416
81 | NCI-H1299 | 0.921
82 | CAL-12T | 0.694
83 | NCI-H1650 | 0.84
84 | SK-LU-1 | 0.491
85 | NCI-H661 | 0.803

same assay, conditions: first compound 0.1 µM

Row | Cell Line | relative viability
86 | NCI-H522 | 0.639
87 | NCI-H838 | 0.735
88 | NCI-H1651 | 0.198
89 | EBC-1 | 0.667
90 | NCI-H1734 | 0.568
91 | NCI-H2009 | 0.694
92 | EPLC-272H | 0.605
93 | PC-14 | 0.299
94 | LCLC-97TM1 | 0.383
95 | NCI-H596 | 0.68
96 | NCI-H2228 | 0.684
97 | EMC-BAC-2 | 0.466
98 | NCI-H2087 | 0.547
99 | Calu-6 | 0.529
100 | HCC-44 | 0.976
101 | NCI-H1703 | 0.175
102 | NCI-H647 | 0.511
103 | LK-2 | 0.655
104 | NCI-H2126 | 0.893
105 | NCI-H2342 | 0.411
106 | SK-MES-1 | 0.682
107 | HARA | 0.707

Row | Cell Line | relative viability
108 | COR-L23 | 0.307
109 | COR-L 105 | 0.643
110 | LC-2-ad | 0.728
111 | LU99A | 0.281
112 | ChaGo-K-1 | 0.426
113 | NCI-H2170 | 0.54
114 | NCI-H3122 | 0.641
115 | IA-LM | 0.88
116 | HCC-78 | 0.678
117 | A549 | 0.329
118 | SW 900 | 0.8
119 | LXF-289 | 1
120 | BEN | 0.966
121 | NCI-H1648 | 0.717
122 | NCI-H2023 | 0.476
123 | NCI-H520 | 0.33
124 | SW 1573 | 0.44
125 | NCI-H1299 | 0.916
126 | CAL-12T | 0.721
127 | NCI-H1650 | 0.659
128 | SK-LU-1 | 0.331
129 | NCI-H661 | 0.681

same assay, conditions: first compound 0.3162 µM

Row | Cell Line | relative viability
130 | NCI-H522 | 0.591
131 | NCI-H838 | 0.855
132 | NCI-H1651 | 0.171
133 | EBC-1 | 0.663
134 | NCI-H1734 | 0.7
135 | NCI-H2009 | 0.682
136 | EPLC-272H | 1.11
137 | PC-14 | 0.249
138 | LCLC-97TM1 | 0.42
139 | NCI-H596 | 0.64
140 | NCI-H2228 | 1.13
141 | EMC-BAC-2 | 0.532
142 | NCI-H2087 | 0.671
143 | Calu-6 | 0.643
144 | HCC-44 | 0.98
145 | NCI-H1703 | 0.242
146 | NCI-H647 | 0.802
147 | LK-2 | 1.06
148 | NCI-H2126 | 0.994
149 | NCI-H2342 | 0.445
150 | SK-MES-1 | 0.791
151 | HARA | 0.87
152 | COR-L23 | 0.347
153 | COR-L 105 | 0.751
154 | LC-2-ad | 0.74
155 | LU99A | 0.22
156 | ChaGo-K-1 | 0.422
157 | NCI-H2170 | 0.711
158 | NCI-H3122 | 0.727
